Source: patent US7691883B2, “Cinnamoyl compound and use of the same” (Sumitomo Chemical Company, Limited, priority 2003, dated 2010)

Assays:
[1] = tested on: mRNA of Type I collagen gene in renal glomerulus; assay: Improvement of chronic renal failure: mRNA of Type I collagen gene in renal glomerulus of anti-Thy-1 antibody rats; type: in vivo, rat; parameters: key to mRNA of collagen gene: Type I collagen amount / GAPDH amount; conditions: for ability to improve chronic renal failure: anti-Thy-1 antibody rats, 15 mg/kg/day orally for 7 days; for mRNA of collagen gene: male Wistar rats given anti-Thy-1 antibody (IgG) i.v., compound orally 15 mg/kg/day for 7 days, Type I collagen amount/GAPDH amount, renal cortex, control group 5.6, normal group 1.7
Experimental: IgG was purified from an ascites-lyophilized powder (CEDARLANE, lot No. 05122) containing an anti-rat CD90 (Thy1.1) monoclonal antibody using MAbTrap kit (Amersham Biosciences, catalogue No. 17-1128-01).
6 ml of a binding buffer was added to 3 ml of ascites to sufficiently recover it, and this was passed through a 0.22 μm filter. The resulting solution was applied to a pre-bufferized column, and the column was then washed with 10 ml of a binding buffer. Thereafter, the column was eluted with 5 ml of an elution buffer. From washing, each 1 ml was fractionated, and the protein concentration of each fraction was measured using bovine serum albumin as a standard. A single peak was confirmed from an elution pattern, and an IgG fraction was dialyzed against a physiological saline overnight at 4° C. The protein concentration of the resulting anti-Thy-1 antibody (IgG) was calculated.
The present compounds represented by the compound numbers (1a), (4a), (9a), (14a), (21a), (33a), (19b) or (21d) (hereinafter, referred to as the present compound (1a), (4a), (9a), (14a), (21a), (33a), (19b) or the present compound (21d), respectively) and a corn oil which is a medium were weighed. These were mixed using a mortar and a pestle to prepare a […]. Using four 7-week old male Wistar rats [Nippon Charles River] per group, 60 μg/ml of the anti-Thy-1 antibody (IgG) or a physiological saline was intravenously injected via a tail vein at 5 ml/kg. Immediately after administration of the anti-Thy-1 antibody (IgG) or a physiological saline, the present compound or a corn oil was repeatedly orally administered for 7 days at 5 ml/kg. A dose of the present compound was 15 mg/kg/day.
On the next day of final administration, a rat reared as described in the above (2) was slaughtered by collection of whole blood, and kidneys were isolated. A whole RNA was separated from the cortex of the isolated kidney using RNeasy Mini Kit (QIAGEN, catalogue No. 74106). To 5 μl (50 ng) of the separated whole RNA were added 1 μl of 20 μM oligo dT and 4 μl of RNase-free distilled water. After the mixture was incubated at 65° C. for 5 minutes, it was immediately ice-cooled. To 10 μl of the solution were added 4 μl of 5× buffer, 2.4 μl of MgCl2, 1 μl of 10 mM dNTP, 1 μl of RNasin, 1 μl of Improm II and 0.6 μl of RNase-free distilled water (all available from Promega), and a reverse transcription reaction was performed under the condition of at 25° C. for 5 minutes, at 42° C. for 1 hour, and at 70° C. for 15 minutes.
Into 5 μl of the reverse transcription reaction solution were mixed each 2 μl of each 1.25 pmol/μl of primers represented by SEQ ID NOS: 3 and 4, 1.25 μl of a probe (FAM-ctcgccttca tgcgcctgct agc-TAMRA) for detecting DNA of a Type I collagen gene represented by SEQ ID No:5, each 0.25 μl of Rodent GAPDH primers, 0.25 μl of a Rodent GAPDH probe, 12.5 μl of TaqMan Universal PCR Master Mix (all available from Applied Biosystem) and 1.5 μl of sterilized water in a well of Optical 96-Well Reaction Plate (Applied Biosystem, catalogue No. N801-0560). As a standard, in place of 5 μl of the reverse transcription reaction solution, each 5 μl of 500, 250, 125, 62.5, 31.25, 15.625 ng/μl rat renal cortex cDNA which had been prepared in advance was used. Thereafter, using Gene Amp 7900 (Applied Biosystem), PCR was performed under the condition of at 50° C. for 5 minutes, and 40 cycles in which one cycle is at 95° C. for 15 seconds and at 60° C. for 1 minute. For quantization, a standard straight line was made, the Type I collagen and GAPDH amounts of each sample were calculated, and the transcription amount was calculated according to the following equation: Type I collagen transcription amount=Type I collagen amount/GAPDH amount
For statistical treatment of the resulting result, F-test of a variance ratio was performed between two groups of the anti-Thy-1 antibody and corn oil-administered groups and other each group. […]

[2] = Ability of a test compound to regulate transcription of a Type I collagen gene using the expression level of a reporter gene (COL-Luc luciferase) as an index; type: cell-based; conditions: final concentration 1 μM; normal human fetal skin fibroblast transfected with COL-Luc; TGF-β, 40 hours; read-out: inhibition percentage (inhibitory effect on the ability of TGF-β to promote transcription of a Type I collagen gene)
Experimental: 1×10^8 cells of a normal human fetal skin fibroblast (Clontech, catalogue No. CC-2509) were cultured at 37° C. overnight under 5% CO2 atmosphere. After the cultured cells were washed with a sodium phosphate buffer (hereinafter, referred to as PBS) twice, 3 ml of PBS was added thereto and the cells were scraped away the wall of a vessel using a cell scraper (Nalgen, catalogue No. 179693). The scraped cells were collected by centrifugation (1,500 rpm, 4° C., 15 min), and these were suspended in 20 ml of PBS and centrifuged again. To the resulting precipitates were added 11 ml of Solution 2 and 4.8 μl of pronase of DNA Extraction Kit (Stratagene, catalogue No. 200600). After shaken at 60° C. for 1 hour, the resulting mixture was allowed to stand in ice for 10 minutes. Then, 4 ml of Solution 3 of the kit was added to the mixture. After mixed, the mixture was allowed to stand in ice for 5 minutes and then centrifuged (3,000 rpm, 4° C., 15 min) to recover a supernatant. To the recovered supernatant was added 2 μl of RNase per 1 ml of the supernatant and the mixture was allowed to stand at 37° C. for 15 minutes. To the mixture was added 2-fold volume of ethanol. After mixed, a white thread-like substance (genomic DNA) appeared and the substance was recovered. The recovered genomic DNA washed with 70% ethanol and then air-dried. The air-dried genomic DNA was dissolved in 500 μl of 10 mM Tris-HCl, 1 mM EDTA (pH 8.0) (hereinafter, referred to as TE).
The resulting genomic DNA solution (the amount equivalent to 1 μg of genomic DNA), each 1 μl (10 pmol/μl) of an oligonucleotide consisting of the nucleotide sequence represented by SEQ ID No:1 and an oligonucleotide consisting of the nucleotide sequence represented by SEQ ID No:2, 29 μL of distilled water, 5 μl of the buffer attached to TaKaRa LA Taq (TAKARA SHUZO, catalogue No. RR002A), 5 μL of a Mg^2+ solution, 5 μL of a dNTP mixture and 0.5 μl of TaKaRa LA Taq (TAKARA SHUZO, catalogue No. RR002A) were mixed. After the resulting mixed solution was incubated at 94° C. for 5 minutes, the mixed solution was subjected to 30 cycles, in which one cycle consists of incubation at 94° C. for 1 minute, at 60° C. for 1 minute and then at 72° C. for 1 minute. The mixed solution was electrophoresed on a 2% agarose gel to recover about 0.5 kb of a DNA. The recovered DNA was treated with phenol/chloroform and then precipitated with ethanol to recover the DNA. The resulting DNA was dissolved in ultrapure water. To this solution were added 2.5 μl of NheI and 2.5 μl of HindIII, and then incubated at 37° C. for 3 hours. Then, the solution was electrophoresed on a 2% agarose gel to recover about 3.5 kb of a DNA. The recovered DNA was precipitated with ethanol to recover again the DNA (hereinafter, referred to as the collagen promoter DNA).
On the other hand, the vector pGL3 (Promega, catalogue No. E1751) having the nucleotide sequence encoding firefly luciferase was digested with NheI and HindIII, and then subjected to agarose gel electrophoresis as described above to recover about 5 kb of a DNA. The recovered DNA was precipitated with ethanol to recover the DNA again. To the recovered DNA were added 44 μl of distilled water, 5 μl of Buffer attached to Alkaline Phosphatase (TAKARA SHUZO, catalogue No. 2120A) and 1 μl of Alkaline Phosphatase (TAKARA SHUZO, catalogue No. 2120A). The mixed solution was incubated at 65° C. for 30 minutes. Then, the mixed solution was treated with phenol/chloroform twice, and precipitated with ethanol to recover the DNA (hereinafter referred to as the Luc vector DNA). Then, after about 20 ng of the collagen promoter DNA and about 20 ng of the Luc vector DNA were mixed, the same amount of a DNA Ligation kit Ver2 enzyme solution was added and this was incubated overnight at 16° C. To the mixed solution was added Escherichia coli 5Hdα (TOYOBO, catalogue No. DNA-903), this was allowed to stand in ice for 30 minutes, and then incubated at 42° C. for 45 seconds. […]

SMILES	ability to improve chronic renal failure [1]	mRNA of collagen gene [1]	inhibition at 1 µM [2]
Cc1cc(O)c(C(=O)C=Cc2cccc(C=CC#N)c2)c(=O)o1 [(1a), 4-hydroxy-3-[3-[3-(2-cyanoethenyl)phenyl]-1-oxo-2-propenyl]-6-methyl-2H-pyran-2-one]	have the ability to improve chronic renal failure	1.9	≥ 70%
C=CCOc1cccc(C=CC(=O)c2c(O)cc(C)oc2=O)c1 [(4a), 4-hydroxy-3-[3-(3-allyloxyphenyl)-1-oxo-2-propenyl]-6-methyl-2H-pyran-2-one]	have the ability to improve chronic renal failure	3.2	≥ 70%
C#CCOc1ccc(C=CC(=O)c2c(O)cc(C)oc2=O)cc1 [(9a), 4-hydroxy-3-[3-(4-propargyloxyphenyl)-1-oxo-2-propenyl]-6-methyl-2H-pyran-2-one]	have the ability to improve chronic renal failure	3.4	
Cc1cc(O)c(C(=O)C=Cc2cccc(OCC#N)c2)c(=O)o1 [(14a), 4-hydroxy-3-[3-[3-(cyanomethoxy)phenyl]-1-oxo-2-propenyl]-6-methyl-2H-pyran-2-one]	have the ability to improve chronic renal failure	2.2	≥ 70%
COC(=O)CNC(=O)c1cccc(C=CC(=O)c2c(N3CCOCC3)cc(C)oc2=O)c1 [(19b), 4-morpholino-3-[3-[3-[[(methoxycarbonylmethyl)amino]carbonyl]phenyl]-1-oxo-2-propenyl]-6-methyl-2H-pyran-2-one]	have the ability to improve chronic renal failure	2.9	≥ 70%
COCC(=O)Nc1cccc(C=CC(=O)c2c(O)cc(C)oc2=O)c1 [(21a), 4-hydroxy-3-[3-[3-(methoxyacetylamino)phenyl]-1-oxo-2-propenyl]-6-methyl-2H-pyran-2-one]	have the ability to improve chronic renal failure	1.7	≥ 70%
COCC(=O)Nc1cccc(C=CC(=O)c2c(O)c3ccccc3oc2=O)c1 [(21d), 4-hydroxy-3-[3-[3-(methoxyacetylamino)phenyl]-1-oxo-2-propenyl]-2H-1-benzopyran-2-one]	have the ability to improve chronic renal failure	2.2	≥ 70%
COC(=O)CNC(=O)c1cccc(C=CC(=O)c2c(O)cc(C)oc2=O)c1 [(33a), 4-hydroxy-3-[3-[3-[[(methoxycarbonylmethyl)amino]carbonyl]phenyl]-1-oxo-2-propenyl]-6-methyl-2H-pyran-2-one]	have the ability to improve chronic renal failure	3.3	≥ 70%
